Measured values from article PMC5421785, “Citrullination only infrequently impacts peptide binding to HLA class II MHC” (PLoS ONE, 2017).
Where two headings read alike, the source gives them in different places. Square brackets hold non-standard residues; d marks the D form. Peptide text beside a SMILES is read from it. Cit = NC(=O)NCCC[C@H](N)C(=O)O

Key:
HLA-DRB1*01:01 = target: T1, HLA-DRB1*01:01 (Homo sapiens, UniProt P01903+P01911, A100R/D57E/F55L/F60I/F76Y/I96L/L162R/M171V/P40L/Q125E/R42F/V115G/Y59C); assay: HLA class II peptide binding, inhibition of radiolabeled peptide binding to purified MHC
T1 construct: EBV transformed homozygous cell lines were used as sources of MHC molecules; endogenous in cells; host or cells: EBV transformed homozygous cell lines

HLA-DRB1*04:01 = target: T2, HLA-DRB1*04:01 (Homo sapiens, UniProt P01903+P01911, A100K/A169T/F76Y/I96L/K127E/L162R/M171V/N62H/P40V/Q125Y/R42H/S133A/S149N/S66Y/V115G/V209L/W38E); assay: as above
T2 construct: EBV transformed homozygous cell lines were used as sources of MHC molecules; endogenous in cells; host or cells: EBV transformed homozygous cell lines

[1] = citrullinated 15-mer (X), purified MHC, inhibition of radiolabeled peptide binding, dash = IC50 >40,000 nM, read-out: DRB1*01:01 binding capacity, Cit peptide (IC50 nM)
[2] = citrullinated 15-mer (X), purified MHC, inhibition of radiolabeled peptide binding, dash = IC50 >40,000 nM, read-out: DRB1*04:01 binding capacity, Cit peptide (IC50 nM)
[3] = citrullinated 15-mer peptide (X = citrulline), purified HLA-DRB1*01:01, read-out: DRB1*01:01 binding capacity, Cit peptide (IC50 nM)
[4] = ratio of WT IC50 to Cit IC50, >1 = citrullination increases binding
[5] = citrullinated 15-mer peptide (X = citrulline), purified HLA-DRB1*04:01, read-out: DRB1*04:01 binding capacity, Cit peptide (IC50 nM)

IC50 (HLA-DRB1*01:01; [1]) [nM] | IC50 (HLA-DRB1*04:01; [2]) [nM] | further results | SMILES
 |  | IC50 (HLA-DRB1*01:01; wild-type (unmodified Arg) 15-mer peptide, purified HLA-DRB1*01:01, read-out: DRB1*01:01 binding capacity, WT peptide (IC50 nM)): 96 nM; IC50 (HLA-DRB1*04:01; wild-type (unmodified Arg) 15-mer peptide, purified HLA-DRB1*04:01, read-out: DRB1*04:01 binding capacity, WT peptide (IC50 nM)): 3740 nM | CC(C)C[C@H](NC(=O)[C@H](CC(N)=O)NC(=O)[C@@H](NC(=O)[C@H](CCC(=O)O)NC(=O)[C@H](CCCNC(=N)N)NC(=O)[C@H](CC(C)C)NC(=O)[C@H](CC(N)=O)NC(=O)[C@@H](N)CC(C)C)[C@@H](C)O)C(=O)N[C@@H](CC(=O)O)C(=O)N[C@@H](CO)C(=O)N[C@@H](CC(C)C)C(=O)N1CCC[C@H]1C(=O)N[C@@H](CC(C)C)C(=O)N[C@H](C(=O)N[C@@H](CC(=O)O)C(=O)O)C(C)C [Vimentin 421 WT]
25300 | 6330 |  | CC(C)C[C@H](NC(=O)[C@@H](NC(=O)[C@H](CC(N)=O)NC(=O)[C@H](CCC(=O)O)NC(=O)[C@H](C)NC(=O)[C@H](CCC(=O)O)NC(=O)[C@H](CCC(=O)O)NC(=O)[C@@H](N)CCCNC(N)=O)[C@@H](C)O)C(=O)N[C@@H](CCC(N)=O)C(=O)N[C@@H](CO)C(=O)N[C@@H](Cc1ccccc1)C(=O)N[C@@H](CCCNC(=N)N)C(=O)N[C@@H](CCC(N)=O)C(=O)N[C@@H](CC(=O)O)C(=O)N[C@H](C(=O)O)C(C)C [XEEAENTLQSFRQDV] (H-[Cit]EEAENTLQSFRQDV-OH)
 |  | IC50 (HLA-DRB1*01:01; [3]): > 40000 nM; DRB1*01:01 binding capacity, WT/cit ratio (HLA-DRB1*01:01; [4]): 1.0; IC50 (HLA-DRB1*04:01; [5]): > 40000 nM; DRB1*04:01 binding capacity, WT/cit ratio (HLA-DRB1*04:01; [4]): 1.0 | C[C@H](NC(=O)CNC(=O)[C@@H]1CCCN1C(=O)[C@H](CO)NC(=O)CNC(=O)[C@H](CCC(=O)O)NC(=O)[C@@H](N)CCCNC(N)=O)C(=O)N[C@@H](CC(=O)O)C(=O)NCC(=O)N1CCC[C@H]1C(=O)N1CCC[C@H]1C(=O)NCC(=O)N[C@@H](CCCNC(=N)N)C(=O)N[C@@H](CC(=O)O)C(=O)NCC(=O)O [XEGSPGADGPPGRDG] (H-[Cit]EGSPGADGPPGRDG-OH; N-terminus and C-terminus assumed)
26100 | > 40000 |  | CSCC[C@H](NC(=O)[C@H](CCC(=O)O)NC(=O)[C@H](CCC(=O)O)NC(=O)[C@H](CCC(N)=O)NC(=O)[C@H](CC(C)C)NC(=O)[C@H](CCCCN)NC(=O)[C@H](CCC(=O)O)NC(=O)[C@@H](N)CCCNC(N)=O)C(=O)N[C@@H](CC(C)C)C(=O)N[C@@H](CCC(N)=O)C(=O)N[C@@H](CCCNC(=N)N)C(=O)N[C@@H](CCC(=O)O)C(=O)N[C@@H](CCC(=O)O)C(=O)N[C@@H](C)C(=O)N[C@@H](CCC(=O)O)C(=O)O [XEKLQEEMLQREEAE] (H-[Cit]EKLQEEMLQREEAE-OH)
 |  | IC50 (HLA-DRB1*01:01; [3]): 57 nM; IC50 (HLA-DRB1*04:01; [5]): 1070 nM | CC[C@H](C)[C@H](NC(=O)[C@H](CC(=O)O)NC(=O)[C@H](CC(C)C)NC(=O)[C@H](C)NC(=O)[C@H](CCSC)NC(=O)[C@H](CCCCN)NC(=O)[C@@H](NC(=O)[C@H](CC(N)=O)NC(=O)[C@H](CC(C)C)NC(=O)[C@H](CC(C)C)NC(=O)[C@H](CC(=O)O)NC(=O)[C@H](CCC(N)=O)NC(=O)[C@H](Cc1ccc(O)cc1)NC(=O)[C@H](CCC(=O)O)NC(=O)[C@@H](N)CCCNC(N)=O)C(C)C)C(=O)O [XEYQDLLNVKMALDI]
 |  | IC50 (HLA-DRB1*01:01; [3]): 493 nM; IC50 (HLA-DRB1*04:01; [5]): > 40000 nM | CSCC[C@H](NC(=O)[C@@H](NC(=O)CNC(=O)[C@@H]1CCCN1C(=O)[C@H](CCC(N)=O)NC(=O)CNC(=O)[C@@H](N)CCCNC(N)=O)C(C)C)C(=O)NCC(=O)N[C@@H](Cc1ccccc1)C(=O)N1CCC[C@H]1C(=O)NCC(=O)N1CCC[C@H]1C(=O)N[C@@H](CCCCN)C(=O)NCC(=O)N[C@@H](C)C(=O)O [XGQPGVMGFPGPKGA] (H-[Cit]GQPGVMGFPGPKGA-OH)
 |  | IC50 (HLA-DRB1*01:01; [3]): 853 nM; IC50 (HLA-DRB1*04:01; [5]): 1890 nM | CC[C@H](C)[C@H](NC(=O)[C@H](CCCNC(=N)N)NC(=O)[C@H](CO)NC(=O)[C@H](CCC(=O)O)NC(=O)[C@H](CCC(=O)O)NC(=O)CNC(=O)[C@H](CCC(=O)O)NC(=O)[C@H](CC(C)C)NC(=O)[C@H](CC(C)C)NC(=O)[C@H](CCCCN)NC(=O)[C@@H](N)CCCNC(N)=O)C(=O)N[C@@H](CO)C(=O)N[C@@H](CC(C)C)C(=O)N1CCC[C@H]1C(=O)N[C@@H](CC(C)C)C(=O)O [XKLLEGEESRISLPL]
 |  | IC50 (HLA-DRB1*01:01; [3]): 5110 nM; IC50 (HLA-DRB1*04:01; [5]): 15500 nM | CC(C)C[C@H](NC(=O)[C@H](C)NC(=O)[C@H](CC(=O)O)NC(=O)[C@@H](NC(=O)[C@H](CCC(=O)O)NC(=O)[C@H](CS)NC(=O)[C@@H](NC(=O)[C@H](CC(C)C)NC(=O)[C@H](CO)NC(=O)[C@H](CCC(N)=O)NC(=O)[C@@H](NC(=O)[C@H](CCC(N)=O)NC(=O)[C@@H](N)CCCNC(N)=O)C(C)C)[C@@H](C)O)C(C)C)C(=O)N[C@@H](CCCCN)C(=O)NCC(=O)O [XQVQSLTCEVDALKG] (H-[Cit]QVQSLTCEVDALKG-OH)
533 | 9620 |  | CC(C)C[C@H](NC(=O)[C@H](CC(C)C)NC(=O)[C@H](CCCNC(=N)N)NC(=O)[C@@H](NC(=O)CNC(=O)[C@@H]1CCCN1C(=O)[C@@H](NC(=O)[C@H](CO)NC(=O)[C@H](CO)NC(=O)[C@@H](N)CCCNC(N)=O)C(C)C)C(C)C)C(=O)N[C@@H](CCC(N)=O)C(=O)N[C@@H](CC(=O)O)C(=O)N[C@@H](CO)C(=O)N[C@H](C(=O)N[C@@H](CC(=O)O)C(=O)O)C(C)C [XSSVPGVRLLQDSVD] (H-[Cit]SSVPGVRLLQDSVD-OH)
53 | 4770 |  | CC(C)C[C@H](NC(=O)[C@H](C)NC(=O)[C@H](CO)NC(=O)CNC(=O)[C@H](CC(C)C)NC(=O)[C@H](CO)NC(=O)[C@H](Cc1ccc(O)cc1)NC(=O)[C@@H](NC(=O)[C@@H](N)CCCNC(N)=O)[C@@H](C)O)C(=O)N[C@@H](CCCNC(=N)N)C(=O)N1CCC[C@H]1C(=O)N[C@@H](CO)C(=O)N[C@H](C(=O)N[C@@H](CO)C(=O)N[C@@H](CCCNC(=N)N)C(=O)O)[C@@H](C)O [XTYSLGSALRPSTSR] (H-[Cit]TYSLGSALRPSTSR-OH)
31 | 338 |  | CC(C)C[C@H](NC(=O)[C@H](CCCNC(=N)N)NC(=O)[C@@H](NC(=O)[C@H](C)NC(=O)[C@H](CO)NC(=O)[C@H](CO)NC(=O)[C@H](CCCNC(=N)N)NC(=O)[C@@H](NC(=O)[C@H](C)NC(=O)[C@@H](N)Cc1ccc(O)cc1)[C@@H](C)O)C(C)C)C(=O)N[C@@H](CCCNC(N)=O)C(=O)N[C@@H](CO)C(=O)N[C@@H](CO)C(=O)N[C@H](C(=O)N1CCC[C@H]1C(=O)O)C(C)C [YATRSSAVRLXSSVP] (H-YATRSSAVRL[Cit]SSVP-OH)
41 | 3220 |  | CC(C)C[C@H](NC(=O)[C@H](CCCNC(N)=O)NC(=O)[C@@H](NC(=O)[C@H](C)NC(=O)[C@H](CO)NC(=O)[C@H](CO)NC(=O)[C@H](CCCNC(=N)N)NC(=O)[C@@H](NC(=O)[C@H](C)NC(=O)[C@@H](N)Cc1ccc(O)cc1)[C@@H](C)O)C(C)C)C(=O)N[C@@H](CCCNC(=N)N)C(=O)N[C@@H](CO)C(=O)N[C@@H](CO)C(=O)N[C@H](C(=O)N1CCC[C@H]1C(=O)O)C(C)C [YATRSSAVXLRSSVP] (H-YATRSSAV[Cit]LRSSVP-OH)
12 | 3720 |  | CC(C)C[C@H](NC(=O)[C@H](CCCNC(=N)N)NC(=O)[C@@H](NC(=O)[C@H](C)NC(=O)[C@H](CO)NC(=O)[C@H](CO)NC(=O)[C@H](CCCNC(N)=O)NC(=O)[C@@H](NC(=O)[C@H](C)NC(=O)[C@@H](N)Cc1ccc(O)cc1)[C@@H](C)O)C(C)C)C(=O)N[C@@H](CCCNC(=N)N)C(=O)N[C@@H](CO)C(=O)N[C@@H](CO)C(=O)N[C@H](C(=O)N1CCC[C@H]1C(=O)O)C(C)C [YATXSSAVRLRSSVP] (H-YAT[Cit]SSAVRLRSSVP-OH)
292 | 1110 |  | CC(C)C[C@H](NC(=O)[C@H](CC(=O)O)NC(=O)[C@H](C)NC(=O)[C@H](Cc1ccccc1)NC(=O)[C@H](CCCCN)NC(=O)[C@H](CO)NC(=O)[C@H](CCCCN)NC(=O)[C@@H](N)Cc1ccc(O)cc1)C(=O)N[C@@H](CO)C(=O)N[C@@H](CCC(=O)O)C(=O)N[C@@H](C)C(=O)N[C@@H](C)C(=O)N[C@@H](CC(N)=O)C(=O)N[C@@H](CCCNC(N)=O)C(=O)N[C@@H](CC(N)=O)C(=O)O [YKSKFADLSEAANXN] (H-YKSKFADLSEAAN[Cit]N-OH)
334 | 6870 |  | CSCC[C@H](NC(=O)[C@H](CCCNC(=N)N)NC(=O)[C@H](CCCNC(=N)N)NC(=O)[C@@H](N)Cc1ccc(O)cc1)C(=O)N[C@@H](Cc1ccccc1)C(=O)NCC(=O)NCC(=O)N1CCC[C@H]1C(=O)NCC(=O)N[C@H](C(=O)N[C@@H](C)C(=O)N[C@@H](CO)C(=O)N[C@@H](CCCNC(N)=O)C(=O)N1CCC[C@H]1C(=O)N[C@@H](CO)C(=O)O)[C@@H](C)O [YRRMFGGPGTASXPS] (H-YRRMFGGPGTAS[Cit]PS-OH)
512 | 15800 |  | CSCC[C@H](NC(=O)[C@H](CCCNC(N)=O)NC(=O)[C@H](CCCNC(=N)N)NC(=O)[C@@H](N)Cc1ccc(O)cc1)C(=O)N[C@@H](Cc1ccccc1)C(=O)NCC(=O)NCC(=O)N1CCC[C@H]1C(=O)NCC(=O)N[C@H](C(=O)N[C@@H](C)C(=O)N[C@@H](CO)C(=O)N[C@@H](CCCNC(=N)N)C(=O)N1CCC[C@H]1C(=O)N[C@@H](CO)C(=O)O)[C@@H](C)O [YRXMFGGPGTASRPS] (H-YR[Cit]MFGGPGTASRPS-OH)
252 | 27400 |  | CSCC[C@H](NC(=O)[C@H](CCCNC(=N)N)NC(=O)[C@H](CCCNC(N)=O)NC(=O)[C@@H](N)Cc1ccc(O)cc1)C(=O)N[C@@H](Cc1ccccc1)C(=O)NCC(=O)NCC(=O)N1CCC[C@H]1C(=O)NCC(=O)N[C@H](C(=O)N[C@@H](C)C(=O)N[C@@H](CO)C(=O)N[C@@H](CCCNC(=N)N)C(=O)N1CCC[C@H]1C(=O)N[C@@H](CO)C(=O)O)[C@@H](C)O [YXRMFGGPGTASRPS] (H-Y[Cit]RMFGGPGTASRPS-OH)
